Results taken from patent US12065699B2, “Monitoring and diagnosis for immunotherapy, and design for therapeutic agent” (Repertoire Genesis Incorporation, priority 2016, dated 2024).

Legend:
[1] = test system: CD8 positive cells; test: intracellular interferon γ staining (flow cytometry); assay type: cell-based, human; design: key: ++ refers to a sample found to produce interferon γ in 3/3; + refers to a sample found to produce interferon γ in ⅓ to ⅔; conditions: 5×10^5 lymphocytes, peptide 1 μg/ml, 4 hours
Procedure: (§1) Peripheral blood of healthy individuals with the same HLA-A*02:01 as the subject sample (tumor patient) was used. An experiment of reactivity was conducted using peptides that were manufactured therefor.
The obtained samples were subjected to intracellular interferon γ staining. 5×10^5 lymphocytes were stimulated and cultured for 4 hours in a 200 μl medium. Neoantigen peptides and control peptides were added so that the final concentration was 1 μg/ml for stimulation. An unstimulated control was also prepared. BioLegend Brefeldin A Solution (1,000×) was added so that the final concentration would be 5.0 μg/ml during stimulation. After the completion of culturing, the cells were collected and stained for 30 minutes at 4° C. with Fixable Viability Dye eFluor780 (eBioscience 65-0865-18), FITC labeled anti-CD4 antibody (BD Pharmingen™557307), ECD labeled anti-CD8 antibody (BECKMAN COULTER 41116015) and PerCP-CY5.5 labeled anti-CD3 antibody (Biolegend 300430).
The cells were treated for 15 minutes with Intraprep permeabilization reagent (Immunotech, Marseille, France). The cells were stained for 15 minutes with PE labeled anti-IL-2 antibody (BD Pharmingen™559334), Alexa700 labeled anti-TNFα antibody (BD Pharmingen™557996), and Pacific Blue labeled anti-IFN-γ antibody (Biolegend 502522)
After suspension into PBS containing 0.5% PFA, measurement was taken with Gallios flow cytometer (BECKMAN COULTER). For intracellular flow cytometry sorting, CD8 positive cells were used to analyze the production of interferon γ.

[2] = test system: peripheral blood of healthy individuals with HLA-A*02:01; test: interferon γ ELISPOT assay; assay type: cell-based, human; design: key: ++ refers to a sample found to produce interferon γ in 3/3; + refers to a sample found to produce interferon γ in ⅓ to ⅔; conditions: 1×10^5 cells stimulated 16 hours; HLA-A*02:01 healthy donor peripheral blood
Procedure: as §1
The conducted assay performed interferon γ ELISPOT and intracellular interferon γ staining. For the interferon γ ELISPOT, MABTECH anti-human IFN-γ mAb 1-D1K, purified (3420-3-250) was used as a capture antibody. In addition, MILLIPORE MultiScreen HTS 96-well Filtration Plate was used.
Briefly stated, the following was performed. • (1) Cytokine (interferon-γ in this example) specific monoclonal antibodies (MABTECH anti-human IFN-γ mAb 1-D1K, purified (3420-3-250)) were immobilized on the solid layer surface. MILLIPORE MultiScreen HTS 96-well Filtration Plate was used in this example. • (2) 1×10^5 cells were stimulated and cultured for 16 hours after washing. The secreted cytokines, i.e., interferon-γ, were bound to capture antibodies (Detection antibody; MABTECH anti-human IFN-γ mAb 7-B6-1, biotinylated (3420-6-250)) that were around the producing cells. After removing the cells by washing, anti-interferon γ antibodies for detection were added.
For biotin labeled detection antibodies, enzyme labeled streptavidin (MABTECH Streptavidin-HRP (3310-9)) was added. • (3) Next, BD ELISPOT AEC Substrate Set (551951) was used for coloration. This method allows the spot corresponding to the position where interferon γ (cytokine) producing cell was located to be seen. The obtained spots were counted with a Carl Zeiss KS ELISPOT (Minerva Tech). The frequency of positive cells was recorded. (Intracellular Interferon γ Staining)

Substance	IFNγ secretion Intra [1]	IFNγ secretion ELISPOT [2]
21 (QLLEPEISFL) [compound 21]	++	–
30 (ALYPFEFRS) [compound 30]	+	–
NISSRIHTV [pepID 33]	++	+
12 (NLKKLLVF) [compound 12]	–	++
7 (VLNINDNEPV) [compound 7]	++	–
43 (FQYSSPALPT) [compound 43]	–	++
FLALECLAHL [pepID 14]	++	++
FTYSSALKV [pepID 41]	++	++
27 (KVLQLLEPEI) [compound 27]	+	–
36 (ILQEYREDFV) [compound 36]	+	–
42 (KTFTYSSAL) [compound 42]	–	++
18 (ICFLALECLAH) [compound 18]	–	++
